Reference: patent publication US6353019B1, “Macrocyclic lactones, compositions, and methods of use” (United States of America as represented by the Department …, priority 1997, dated 2002)

Key:
M14 = test: NCI 60 cell-line screen, M14 (Melanoma); assay type: cell-based, human; details: averaged, quadruplicate testing, 48 h, SRB
Procedure: (§1) The NCI screen consists of a panel of 60 different human tumor cell lines against which compounds are tested over a defined range of concentrations to determine the relative degree of growth inhibition or cytotoxicity against each cell line. The design and operation of the screen is such that for each compound tested, both the absolute and relative sensitivities of individual cell lines comprising the screen are sufficiently reproducible that a characteristic profile or “fingerprint” of cellular response is generated. Compounds which are active in the NCI screen show pronounced differential tumor growth-inhibitory and/or cytotoxic effects to the diverse cell lines comprising the 60 cell-line panel. The degree of differential response between the most and least sensitive lines typically may be relatively small (e.g., 2- to 10-fold), or occasionally as great as 3-4 orders of magnitude. […]
(§2) In the screening assay, each agent is tested over a broad concentration range against every cell line in the panel. […] Test compounds are evaluated at five 10-fold dilutions. […] Optical densities are measured on automated plate readers, followed by computerized data acquisition, processing, storage, and availability for display and analysis. […]

IGROVI = test: NCI 60 cell-line screen, IGROVI (Ovary); assay type: cell-based, human; details: averaged, quadruplicate testing, 48 h, SRB
Procedure: as §1, §2

NCI-H23 = test: NCI 60 cell-line screen, NCI-H23 (Lung); assay type: cell-based, human; details: averaged, quadruplicate testing, 48 h, SRB
Procedure: as §1, §2

MDA-MB-435 = test: NCI 60 cell-line screen, MDA-MB-435 (Breast); assay type: cell-based, human; details: averaged, quadruplicate testing, 48 h, SRB
Procedure: as §1, §2

SNB-75 = test: NCI 60 cell-line screen, SNB-75 (Brain); assay type: cell-based, human; details: averaged, quadruplicate testing, 48 h, SRB
Procedure: as §1, §2

MCF-7 = test: NCI 60 cell-line screen, MCF-7 (Breast); assay type: cell-based, human; details: averaged, quadruplicate testing, 48 h, SRB
Procedure: as §1, §2

DU-145 = test: NCI 60 cell-line screen, DU-145 (Prostate); assay type: cell-based, human; details: averaged, quadruplicate testing, 48 h, SRB
Procedure: as §1, §2

UACC-62 = test: NCI 60 cell-line screen, UACC-62 (Melanoma); assay type: cell-based, human; details: averaged, quadruplicate testing, 48 h, SRB
Procedure: as §1, §2

SF-295 = test: NCI 60 cell-line screen, SF-295 (Brain); assay type: cell-based, human; details: averaged, quadruplicate testing, 48 h, SRB
Procedure: as §1, §2

HOP-92 = test: NCI 60 cell-line screen, HOP-92 (Lung); assay type: cell-based, human; details: averaged, quadruplicate testing, 48 h, SRB
Procedure: as §1, §2

HCC-2998 = test: NCI 60 cell-line screen, HCC-2998 (Colon); assay type: cell-based, human; details: averaged, quadruplicate testing, 48 h, SRB
Procedure: as §1, §2

HL-60-TB = test: NCI 60 cell-line screen, HL-60-TB (Leukemia); assay type: cell-based, human; details: averaged, quadruplicate testing, 48 h, SRB
Procedure: as §1, §2

HOP-62 = test: NCI 60 cell-line screen, HOP-62 (Lung); assay type: cell-based, human; details: averaged, quadruplicate testing, 48 h, SRB
Procedure: as §1, §2

SW-620 = test: NCI 60 cell-line screen, SW-620 (Colon); assay type: cell-based, human; details: averaged, quadruplicate testing, 48 h, SRB
Procedure: as §1, §2

SR = test: NCI 60 cell-line screen, SR (Leukemia); assay type: cell-based, human; details: averaged, quadruplicate testing, 48 h, SRB
Procedure: as §1, §2

A498 = test: NCI 60 cell-line screen, A498 (Kidney); assay type: cell-based, human; details: averaged, quadruplicate testing, 48 h, SRB
Procedure: as §1, §2

SK-MEL-5 = test: NCI 60 cell-line screen, SK-MEL-5 (Melanoma); assay type: cell-based, human; details: averaged, quadruplicate testing, 48 h, SRB
Procedure: as §1, §2

[1] = Stability of compounds and extracts in solvents and media; assay type: physicochemical
Description: Therefore, all subsequent attempts at isolation avoided the use of chloroform or exposure of samples to CDCl3, and no further problems with decomposition or loss of bioactivity were encountered. Moreover, there was no indication of any instability of the pure isolated compounds in any of the other common organic solvents employed, nor in aqueous or biological media. Therefore, a typical isolation and purification of the salicylihalamides from the selected crude extract is as follows.

RXF-393 = test: NCI 60 cell-line screen, RXF-393 (Kidney); assay type: cell-based, human; details: averaged, quadruplicate testing, 48 h, SRB
Procedure: as §1, §2

T-47D = test: NCI 60 cell-line screen, T-47D (Breast); assay type: cell-based, human; details: averaged, quadruplicate testing, 48 h, SRB
Procedure: as §1, §2

MOLT-4 = test: NCI 60 cell-line screen, MOLT-4 (Leukemia); assay type: cell-based, human; details: averaged, quadruplicate testing, 48 h, SRB
Procedure: as §1, §2

UACC-257 = test: NCI 60 cell-line screen, UACC-257 (Melanoma); assay type: cell-based, human; details: averaged, quadruplicate testing, 48 h, SRB
Procedure: as §1, §2

SF-268 = test: NCI 60 cell-line screen, SF-268 (Brain); assay type: cell-based, human; details: averaged, quadruplicate testing, 48 h, SRB
Procedure: as §1, §2

HCT-15 = test: NCI 60 cell-line screen, HCT-15 (Colon); assay type: cell-based, human; details: averaged, quadruplicate testing, 48 h, SRB
Procedure: as §1, §2

Substance: salicylihalamide A
- negative log10 GI50 (M14): 8.92
- negative log10 GI50 (IGROVI): 7.89
- negative log10 GI50 (NCI-H23): 6.55
- negative log10 GI50 (MDA-MB-435): 7.82
- negative log10 GI50 (SNB-75): 6.21
- negative log10 GI50 (MCF-7): 7.12
- negative log10 GI50 (DU-145): 8.26
- negative log10 GI50 (UACC-62): 8.38
- negative log10 GI50 (SF-295): 8.96
- negative log10 GI50 (HOP-92): 7.77
- negative log10 GI50 (HCC-2998): 6.74
- negative log10 GI50 (HL-60-TB): 9.04
- negative log10 GI50 (HOP-62): 8.38
- negative log10 GI50 (SW-620): 7.54
- negative log10 GI50 (SR): 8.44
- negative log10 GI50 (A498): 6.55
- negative log10 GI50 (SK-MEL-5): 9.00
- stability in deuterated chloroform (CDCl3) [1]: sensitivity
- negative log10 GI50 (RXF-393): 9.07
- negative log10 GI50 (T-47D): 8.34
- negative log10 GI50 (MOLT-4): 7.96
- negative log10 GI50 (UACC-257): 8.47
- negative log10 GI50 (SF-268): 7.55
- negative log10 GI50 (HCT-15): 8.44
